# Source: US7741327B2 (Hoffmann-La Roche Inc., priority 2008, dated 2010)
# Molecular target: T1, Recombinant human liver GK1 (GST-GK) (Homo sapiens, UniProt P35557)
# T1 construct: made in house; host or cells: E. coli
# T1 sequence (P35557 1-466 isoform P35557-2): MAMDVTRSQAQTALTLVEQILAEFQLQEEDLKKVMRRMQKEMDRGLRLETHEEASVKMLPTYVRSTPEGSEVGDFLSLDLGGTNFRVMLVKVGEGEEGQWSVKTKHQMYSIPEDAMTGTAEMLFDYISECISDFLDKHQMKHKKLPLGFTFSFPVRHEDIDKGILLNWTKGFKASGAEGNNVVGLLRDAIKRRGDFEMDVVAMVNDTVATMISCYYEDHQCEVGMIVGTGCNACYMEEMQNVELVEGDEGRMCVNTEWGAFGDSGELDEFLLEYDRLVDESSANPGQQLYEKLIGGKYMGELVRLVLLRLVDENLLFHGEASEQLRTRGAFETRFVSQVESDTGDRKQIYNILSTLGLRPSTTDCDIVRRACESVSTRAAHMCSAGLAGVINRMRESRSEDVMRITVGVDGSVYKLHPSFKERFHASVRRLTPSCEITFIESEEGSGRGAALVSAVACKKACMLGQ
# Assay: In vitro glucokinase activity (G6PDH-coupled NADH assay)
# Assay type: biochemical
# Details: 30° C., 5 mM D-glucose, 10% DMSO
# Procedure: Glucokinase In Vitro Assay Protocol: Glucokinase (GK) was assayed by coupling the production of glucose-6-phosphate to the generation of NADH with glucose-6-phosphate dehydrogenase (G6PDH, 0.75-1 kunits/mg; Boehringer Mannheim, Indianapolis, Ind.) from Leuconostoc mesenteroides as the coupling enzyme (Scheme 2).
# Recombinant human liver GK1 was expressed in E. coli as a glutathione S-transferase fusion protein (GST-GK) [Liang et al, 1995] and was purified by chromatography over a glutathione-Sepharose 4B affinity column using the procedure provided by the manufacturer (Amersham Pharmacia Biotech, Piscataway, N.J.).
# The assay was conducted at 30° C. in a flat bottom 96-well tissue culture plate from Costar (Cambridge, Mass.) with a final incubation volume of 120 μL. The incubation reaction contained the following: 25 mM Hepes buffer (pH 7.1), 25 mM KCl, 5 mM D-glucose, 1 mM ATP, 1.8 mM NAD, 2 mM MgCl2, 1 μM sorbitol-6-phosphate, 1 mM dithiothreitol, test drug or 10% dimethylsulfoxide, ˜7 units/ml G6PDH, and GK (see below). All organic reagents were >98% pure and were from Boehringer Mannheim with the exceptions of D-glucose and Hepes which were from Sigma Chemical Co, St Louis, Mo. Test compounds were dissolved in dimethylsulfoxide and were added to the incubation reaction minus GST-GK in a volume of 12 μL to yield a final dimethylsulfoxide concentration of 10%. This mix was pre-incubated in the temperature controlled chamber of a SPECTRAmax 250 microplate spectrophotometer (Molecular Devices Corporation, Sunnyvale, Calif.) for 10 min to allow temperature equilibrium and then the reaction was started by the addition of 20 μL GST-GK.
# After addition of enzyme, the increase in optical density (OD) at 340 nm was monitored spectrophotometrically to determine the rate of change (OD340 per min). The GK activity (OD340/min) in control wells (10% DMSO minus GK activators) was compared with the activity in wells containing test GK activators, and the concentration of activator that produced a 50% increase in the activity of GK, i.e., the SC1.5, was calculated. The table below provides the in vitro glucokinase activity for the compounds in the Examples: […]
row,Compound,SC1.5 (concentration of activator that produced a 50% increase in the activity of GK) [µM]
1,"Cc1cccc(OC2=CC(=O)N([C@@H](CC(C)C)C(=O)Nc3ccn(C[C@@H](O)CO)n3)C2)c1F [Example 131, (S)-2-[4-(2-Fluoro-3-methyl-phenoxy)-2-oxo-2,5-dihydro-pyrrol-1-yl]-4-methyl-pentanoic acid [1-((R)-2,3-dihydroxy-propyl)-1H-pyrazol-3-yl]-amide]",0.117
2,"COCc1nsc(NC(=O)[C@H](CC(C)C)N2CC(Oc3ccccc3Cl)=CC2=O)n1 [Example 112, (S)-2-[4-(2-Chloro-phenoxy)-2-oxo-2,5-dihydro-pyrrol-1-yl]-4-methyl-pentanoic acid (3-methoxymethyl-[1,2,4]thiadiazol-5-yl)-amide]",2.26
3,"COc1ccc(OC2=CC(=O)N([C@@H](CC(C)C)C(=O)Nc3ccn(C[C@@H](O)CO)n3)C2)cc1 [Example 99, (S)-2-[4-(4-Methoxy-phenoxy)-2-oxo-2,5-dihydro-pyrrol-1-yl]-4-methyl-pentanoic acid [1-((R)-2,3-dihydroxy-propyl)-1H-pyrazol-3-yl]-amide]",0.747
4,"CCOc1ccccc1OC1=CC(=O)N([C@@H](CC(C)C)C(=O)Nc2ccn(C[C@@H]3COC(C)(C)O3)n2)C1 [Example 83, (S)-2-[4-(2-Ethoxy-phenoxy)-2-oxo-2,5-dihydro-pyrrol-1-yl]-4-methyl-pentanoic acid [1-((R)-2,2-dimethyl-[1,3]dioxolan-4-yl-methyl)-1H-pyrazol-3-yl]-amide]",8.055
5,"CCCOC1=CC(=O)N([C@@H](CC2CCCCC2)C(=O)Nc2ccn(CC(C)(C)O)n2)C1 [Example 24, (S)-3-Cyclohexyl-N-[1-(2-hydroxy-2-methyl-propyl)-1H-pyrazol-3-yl]-2-(2-oxo-4-propoxy-2,5-dihydro-pyrrol-1-yl)-propionamide]",5.251
6,"CC(C)C[C@@H](C(=O)Nc1cnccn1)N1CC(Oc2cccc(C(O)CO)c2F)=CC1=O (stereo partly drawn) [Example 155, (S)-2-{4-[3-(1,2-Dihydroxy-ethyl)-2-fluoro-phenoxy]-2-oxo-2,5-dihydro-pyrrol-1-yl}-4-methyl-pentanoic acid pyrazin-2-ylamide]",1.717
7,"COCCn1ccc(NC(=O)[C@H](CC2CCCCC2)N2CC(Oc3ccccc3C(F)(F)F)=CC2=O)n1.Cl [Example 91, (S)-3-Cyclohexyl-N-[1-(2-methoxy-ethyl)-1H-pyrazol-3-yl]-2-[2-oxo-4-(2-trifluoromethyl-phenoxy)-2,5-dihydro-pyrrol-1-yl]-propionamide Hydrochloride]",0.039
8,"CCOc1cccc(OC2=CC(=O)N([C@@H](CC(C)C)C(=O)Nc3ccn(C[C@@H](O)CO)n3)C2)c1 [Example 162, (S)-2-[4-(3-Ethoxy-phenoxy)-2-oxo-2,5-dihydro-pyrrol-1-yl]-4-methyl-pentanoic acid [1-((R)-2,3-dihydroxy-propyl)-1H-pyrazol-3-yl]-amide]",0.307
9,"CCOc1cccc(OC2=CC(=O)N([C@@H](CC(C)C)C(=O)Nc3ccn(C[C@@H](O)CO)n3)C2)c1Cl [Example 161, (S)-2-[4-(2-chloro-3-ethoxy-phenoxy)-2-oxo-2,5-dihydro-pyrrol-1-yl]-4-methyl-pentanoic acid [1-((R)-2,3-dihydroxy-propyl)-1H-pyrazol-3-yl]-amide]",0.042
10,"COC[C@H](C)OC1=CC(=O)N([C@@H](CC2CCCC2)C(=O)Nc2ccn(CC(C)(C)O)n2)C1 [Example 13, (S)-3-Cyclopentyl-N-[1-(2-hydroxy-2-methyl-propyl)-1H-pyrazol-3-yl]-2-[4-((S)-2-methoxy-1-methyl-ethoxy)-2-oxo-2,5-dihydro-pyrrol-1-yl]-propionamide]",4.062
11,"CC(C)C[C@@H](C(=O)Nc1ccn(C[C@@H](O)CO)n1)N1CC(Oc2cccc3ccccc23)=CC1=O [Example 100, (S)-4-Methyl-2-[4-(naphthalen-1-yloxy)-2-oxo-2,5-dihydro-pyrrol-1-yl]-pentanoic acid [1-((R)-2,3-dihydroxy-propyl)-1H-pyrazol-3-yl]-amide]",0.06

# Now from value to molecule:
row,SC1.5 (concentration of activator that produced a 50% increase in the activity of GK) [µM],Compound
1,2.231,"COc1ccccc1OC1=CC(=O)N([C@@H](CC2CCCO2)C(=O)Nc2ccn(CC(C)(C)O)n2)C1 (stereo partly drawn) [Example 178, (S)-N-[1-(2-hydroxy-2-methyl-propyl)-1H-pyrazol-3-yl]-2-[4-(2-methoxy-phenoxy)-2-oxo-2,5-dihydro-pyrrol-1-yl]-3-(tetrahydro-furan-2-yl)-propionamide]"
2,0.09,"O=C(Nc1ccn(C[C@@H](O)CO)n1)C(CC1C[C@@H](F)[C@@H](F)C1)N1CC(Oc2ccccc2Cl)=CC1=O (stereo partly drawn) [Example 263, 2-[4-(2-Chloro-phenoxy)-2-oxo-2,5-dihydro-pyrrol-1-yl]-3-((1R,3S,4R)-3,4-difluoro-cyclopentyl)-N-[1-((R)-2,3-dihydroxy-propyl)-1H-pyrazol-3-yl]-propionamide]"
3,0.365,"CC(C)(O)Cn1ccc(NC(=O)C(CC2CC3CCC2C3)N2CC(Oc3c(F)cccc3F)=CC2=O)n1 (stereo not drawn) [Example 228, 3-Bicyclo[2.2.1]hept-2-yl-2-[4-(2,6-difluoro-phenoxy)-2-oxo-2,5-dihydro-pyrrol-1-yl]-N-[1-(2-hydroxy-2-methyl-propyl)-1H-pyrazol-3-yl]-propionamide]"
4,0.021,"CC(C)(O)Cn1ccc(NC(=O)[C@H](CC2CCCCC2)N2CC(Oc3cccc(Br)c3)=CC2=O)n1 [Example 205, (S)-2-[4-(3-bromo-phenoxy)-2-oxo-2,5-dihydro-pyrrol-1-yl]-3-cyclohexyl-N-[1-(2-hydroxy-2-methyl-propyl)-1H-pyrazol-3-yl]-propionamide]"
5,17.303,"O=C(Nc1ccn(C[C@@H](O)CO)n1)C(CC(F)F)N1CC(Oc2ccccc2Cl)=CC1=O (stereo partly drawn) [Example 221, 2-[4-(2-Chloro-phenoxy)-2-oxo-2,5-dihydro-pyrrol-1-yl]-N-[1-((R)-2,3-dihydroxy-propyl)-1H-pyrazol-3-yl]-4,4-difluoro-butyramide]"
6,1.538,"CC1(C)OC[C@@H](Cn2ccc(NC(=O)[C@H](Cc3ccc(F)cc3)N3CC(Oc4ccccc4Cl)=CC3=O)n2)O1 [Example 186, (S)-2-[4-(2-chloro-phenoxy)-2-oxo-2,5-dihydro-pyrrol-1-yl]-N-[1-((R)-2,2-dimethyl-[1,3]dioxolan-4-yl-methyl)-1H-pyrazol-3-yl]-3-(4-fluoro-phenyl)-propionamide]"
7,0.894,"O=C(Nc1ccn(C[C@@H](O)CO)n1)[C@H](Cc1ccccc1Cl)N1CC(Oc2ccccc2Cl)=CC1=O [Example 189, (S)-2-[4-(2-chloro-phenoxy)-2-oxo-2,5-dihydro-pyrrol-1-yl]-N-[1-((R)-2,3-dihydroxy-propyl)-1H-pyrazol-3-yl]-3-(2-chlorophenyl)-propionamide]"
